# ChEMBL document CHEMBL5715954, “Silencing c-Myc translation as a therapeutic strategy through targeting PI3Kδ and CK1ε in hematological malignancies” (Blood, 2017)
# Legend:
# Set-up in all cases: scale not given: the % may be the effect or the level left
# [1] = target: Calcium/calmodulin-dependent protein kinase type 1 (Homo sapiens) (UniProt Q14012); experiment: Inhibition of human CAMK1a assessed as enzyme activity at 1 uM using KKALRRQETVDAL as substrate preincubated for 20 mins followed by [gamma-33P]-ATP addition and measured after 120 mins by radiometric Hot-SpotSM Kinase assay relative to control
# [2] = target: Casein kinase I isoform delta (Homo sapiens) (UniProt P48730); experiment: Inhibition of human CK1delta assessed as enzyme activity at 1 uM using KRRRAL[pS]VASLPGL as substrate preincubated for 20 mins followed by [gamma-33P]-ATP addition and measured after 120 mins by radiometric Hot-SpotSM Kinase assay relative to control
# [3] = target: T1, Megakaryocyte-associated tyrosine-protein kinase (Homo sapiens) (UniProt P42679); experiment: Inhibition of human CTK/MATK assessed as enzyme activity at 1 uM using poly[Glu:Tyr] (4:1) as substrate preincubated for 20 mins followed by [gamma-33P]-ATP addition and measured after 120 mins by radiometric Hot-SpotSM Kinase assay relative to control
# T1 sequence (whole entry): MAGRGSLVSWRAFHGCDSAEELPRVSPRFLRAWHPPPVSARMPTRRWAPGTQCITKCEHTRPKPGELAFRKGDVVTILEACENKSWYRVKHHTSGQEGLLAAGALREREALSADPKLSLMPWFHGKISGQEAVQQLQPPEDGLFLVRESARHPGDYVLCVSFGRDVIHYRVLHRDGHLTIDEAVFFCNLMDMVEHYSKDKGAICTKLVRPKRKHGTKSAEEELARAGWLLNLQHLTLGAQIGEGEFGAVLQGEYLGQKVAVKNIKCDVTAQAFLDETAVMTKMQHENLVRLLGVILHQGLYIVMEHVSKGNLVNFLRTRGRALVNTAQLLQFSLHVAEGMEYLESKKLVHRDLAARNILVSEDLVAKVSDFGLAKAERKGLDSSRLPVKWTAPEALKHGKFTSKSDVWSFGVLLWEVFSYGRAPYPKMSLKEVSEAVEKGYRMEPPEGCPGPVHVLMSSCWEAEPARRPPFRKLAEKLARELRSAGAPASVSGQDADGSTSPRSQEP
# [4] = target: Ephrin type-A receptor 7 (Homo sapiens) (UniProt Q15375); experiment: Inhibition of human EPHA7 assessed as enzyme activity at 1 uM using poly[Glu:Tyr] (4:1) as substrate preincubated for 20 mins followed by [gamma-33P]-ATP addition and measured after 120 mins by radiometric Hot-SpotSM Kinase assay relative to control
# [5] = target: Tyrosine-protein kinase FRK (Homo sapiens) (UniProt P42685); experiment: Inhibition of human FRK assessed as enzyme activity at 1 uM using poly[Glu:Tyr] (4:1) as substrate preincubated for 20 mins followed by [gamma-33P]-ATP addition and measured after 120 mins by radiometric Hot-SpotSM Kinase assay relative to control
# [6] = target: T2, Dual specificity mitogen-activated protein kinase kinase 6 (Homo sapiens) (UniProt P52564); experiment: Inhibition of human MKK6 assessed as enzyme activity at 1 uM using p38a (K53A) as substrate preincubated for 20 mins followed by [gamma-33P]-ATP addition and measured after 120 mins by radiometric Hot-SpotSM Kinase assay relative to control
# T2 sequence (whole entry): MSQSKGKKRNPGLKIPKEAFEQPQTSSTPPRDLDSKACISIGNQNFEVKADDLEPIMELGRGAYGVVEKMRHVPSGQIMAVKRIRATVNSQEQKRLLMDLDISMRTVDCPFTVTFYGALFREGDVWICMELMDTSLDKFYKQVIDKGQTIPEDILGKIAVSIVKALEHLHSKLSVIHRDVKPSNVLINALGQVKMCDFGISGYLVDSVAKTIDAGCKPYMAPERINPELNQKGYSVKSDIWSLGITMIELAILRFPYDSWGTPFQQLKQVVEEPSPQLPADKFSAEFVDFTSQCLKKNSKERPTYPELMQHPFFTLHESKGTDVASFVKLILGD
# [7] = target: T3, Phosphorylase b kinase gamma catalytic chain, liver/testis isoform (Homo sapiens) (UniProt P15735); experiment: Inhibition of human PHKg2 assessed as enzyme activity at 1 uM using KKLNRTLSFAEPG as substrate preincubated for 20 mins followed by [gamma-33P]-ATP addition and measured after 120 mins by radiometric Hot-SpotSM Kinase assay relative to control
# T3 sequence (whole entry): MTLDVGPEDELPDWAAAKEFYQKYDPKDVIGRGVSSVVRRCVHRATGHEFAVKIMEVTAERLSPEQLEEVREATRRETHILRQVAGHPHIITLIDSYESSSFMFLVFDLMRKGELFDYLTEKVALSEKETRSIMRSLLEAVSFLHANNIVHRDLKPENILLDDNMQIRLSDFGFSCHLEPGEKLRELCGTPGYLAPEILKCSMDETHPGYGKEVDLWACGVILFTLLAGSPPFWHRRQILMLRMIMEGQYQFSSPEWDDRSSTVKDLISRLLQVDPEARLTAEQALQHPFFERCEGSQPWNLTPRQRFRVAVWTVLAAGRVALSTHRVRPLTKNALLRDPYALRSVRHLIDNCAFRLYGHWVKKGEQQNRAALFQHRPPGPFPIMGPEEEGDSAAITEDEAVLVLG
# [8] = target: STE20/SPS1-related proline-alanine-rich protein kinase (Homo sapiens) (UniProt Q9UEW8); experiment: Inhibition of human STK39 assessed as enzyme activity at 1 uM using myelin basic protein as substrate preincubated for 20 mins followed by [gamma-33P]-ATP addition and measured after 120 mins by radiometric Hot-SpotSM Kinase assay relative to control
# Chain of Calcium/calmodulin-dependent protein kinase type 1 (Homo sapiens) (Q14012 whole entry, looked up, canonical isoform): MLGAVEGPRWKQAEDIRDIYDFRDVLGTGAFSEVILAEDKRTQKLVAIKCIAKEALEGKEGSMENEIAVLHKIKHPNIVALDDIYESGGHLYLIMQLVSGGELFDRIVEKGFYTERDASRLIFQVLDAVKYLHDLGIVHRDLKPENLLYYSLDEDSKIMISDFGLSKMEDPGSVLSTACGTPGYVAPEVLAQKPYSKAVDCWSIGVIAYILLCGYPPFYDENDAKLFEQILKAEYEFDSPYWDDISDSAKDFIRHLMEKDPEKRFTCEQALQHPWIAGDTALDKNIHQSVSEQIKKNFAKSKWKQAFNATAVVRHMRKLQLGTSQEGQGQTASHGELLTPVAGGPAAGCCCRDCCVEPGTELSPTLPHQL
# Chain of Casein kinase I isoform delta (Homo sapiens) (P48730 whole entry, looked up, canonical isoform): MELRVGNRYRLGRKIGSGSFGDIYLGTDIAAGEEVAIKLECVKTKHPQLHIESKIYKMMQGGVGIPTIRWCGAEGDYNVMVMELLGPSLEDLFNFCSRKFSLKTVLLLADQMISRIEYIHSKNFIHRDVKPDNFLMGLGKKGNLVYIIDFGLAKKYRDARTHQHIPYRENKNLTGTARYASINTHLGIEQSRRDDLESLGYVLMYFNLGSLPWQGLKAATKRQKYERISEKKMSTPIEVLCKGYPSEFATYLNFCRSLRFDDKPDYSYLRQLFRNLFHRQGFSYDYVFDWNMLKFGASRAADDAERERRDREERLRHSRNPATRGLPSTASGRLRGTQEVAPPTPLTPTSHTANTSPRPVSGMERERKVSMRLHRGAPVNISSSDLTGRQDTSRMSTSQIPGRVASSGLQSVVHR
# Chain of Ephrin type-A receptor 7 (Homo sapiens) (Q15375 28-998 limits assumed): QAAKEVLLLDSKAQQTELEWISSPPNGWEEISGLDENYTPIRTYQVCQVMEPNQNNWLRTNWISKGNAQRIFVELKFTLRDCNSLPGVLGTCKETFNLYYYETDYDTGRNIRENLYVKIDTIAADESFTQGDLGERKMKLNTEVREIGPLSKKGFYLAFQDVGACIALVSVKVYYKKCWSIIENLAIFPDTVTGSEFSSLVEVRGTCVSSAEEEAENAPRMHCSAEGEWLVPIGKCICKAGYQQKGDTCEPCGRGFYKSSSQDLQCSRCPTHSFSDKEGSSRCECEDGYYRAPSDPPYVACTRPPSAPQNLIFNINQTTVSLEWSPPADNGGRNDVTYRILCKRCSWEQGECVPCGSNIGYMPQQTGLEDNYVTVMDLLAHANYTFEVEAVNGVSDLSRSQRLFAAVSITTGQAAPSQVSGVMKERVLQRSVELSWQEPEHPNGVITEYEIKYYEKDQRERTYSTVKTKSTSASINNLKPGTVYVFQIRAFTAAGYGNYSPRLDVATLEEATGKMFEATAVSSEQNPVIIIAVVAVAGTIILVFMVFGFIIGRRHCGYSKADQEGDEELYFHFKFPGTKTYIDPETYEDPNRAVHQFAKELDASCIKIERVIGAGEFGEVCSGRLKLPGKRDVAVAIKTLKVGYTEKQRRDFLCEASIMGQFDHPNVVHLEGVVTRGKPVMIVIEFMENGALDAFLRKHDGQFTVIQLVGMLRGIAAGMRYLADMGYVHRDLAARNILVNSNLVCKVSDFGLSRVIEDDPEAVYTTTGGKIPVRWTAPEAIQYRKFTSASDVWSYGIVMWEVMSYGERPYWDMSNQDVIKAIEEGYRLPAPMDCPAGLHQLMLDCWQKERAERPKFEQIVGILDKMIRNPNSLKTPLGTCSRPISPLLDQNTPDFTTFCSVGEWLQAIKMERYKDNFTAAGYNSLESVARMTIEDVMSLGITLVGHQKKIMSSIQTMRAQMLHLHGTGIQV
# Chain of Tyrosine-protein kinase FRK (Homo sapiens) (P42685 whole entry): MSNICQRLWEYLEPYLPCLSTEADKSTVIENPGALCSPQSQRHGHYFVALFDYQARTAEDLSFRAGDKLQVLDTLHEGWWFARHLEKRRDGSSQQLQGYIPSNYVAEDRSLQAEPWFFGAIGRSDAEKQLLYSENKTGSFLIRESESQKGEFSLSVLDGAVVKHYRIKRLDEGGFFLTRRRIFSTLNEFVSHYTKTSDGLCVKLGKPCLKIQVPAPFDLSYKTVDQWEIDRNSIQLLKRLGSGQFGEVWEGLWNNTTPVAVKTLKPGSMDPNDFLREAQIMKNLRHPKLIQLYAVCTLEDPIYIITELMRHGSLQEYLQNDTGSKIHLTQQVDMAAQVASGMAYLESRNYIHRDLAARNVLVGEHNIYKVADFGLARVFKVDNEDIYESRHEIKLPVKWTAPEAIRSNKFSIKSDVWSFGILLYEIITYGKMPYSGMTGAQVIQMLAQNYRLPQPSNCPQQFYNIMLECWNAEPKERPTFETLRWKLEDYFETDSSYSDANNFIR
SMILES,Activity [1] [%],Activity [2] [%],Activity [3] [%],Activity [4] [%],Activity [5] [%],Activity [6] [%],Activity [7] [%],Activity [8] [%]
CC[C@H](Nc1ncnc2[nH]cnc12)c1nc2cccc(F)c2c(=O)n1-c1ccccc1,96.8,96.5,105,89.7,94,87.2,89.1,87.1
C[C@H](Nc1ncnc2nc[nH]c12)c1cc2cccc(Cl)c2c(=O)n1-c1ccccc1,103,97,105,93.4,96.9,86.2,102,78.1
CC(C)Oc1ccc(-c2nn([C@@H](C)c3oc4ccc(F)cc4c(=O)c3-c3cccc(F)c3)c3ncnc(N)c23)cc1F [UMBRALISIB],99.6,97.7,106,88.7,95.3,87.8,95.4,85.4
